# Experimental data reported in patent publication US12697277B2, “Materials and methods for mitigating the presence of nitrosamines in packaging using an active agent” (CSP TECHNOLOGIES, INC., priority 2024, dated 2026).
# Columns and labels:
# [1] = FDA acceptable intake limit; cited from earlier work
# [2] = Raw active and film studies with propranolol: Nitroso-propranolol (NPO) by LC-MS; assay type: physicochemical; conditions: raw active 5 g in pouch in 250 ml bottle with 1 g propranolol; 50° C./75% RH, 4 weeks
# Method: Raw active or film with active were tested in 250 ml bottles with 1 g of propranolol (beads), to measure formation of Nitroso-propranolol (NPO). When present, the film (2 pieces of A2×2 inches) was wrapped inside bottle(s). Raw active (5 g) was placed in a pouch inside bottle(s).
# Humidity was provided by vials containing a salt solution: ASAPprime™ vials (FreeThink Technologies, Branford CT, USA). A screw cap was used, with no induction seal.
# NPO was directly measured by LC-MS (liquid chromatography-mass spectroscopy). The detection limit is approximately 1% of the results reported.
# [3] = acceptable intake of the nitrosamine per day; cited from earlier work
# [4] = Maximum daily dose (MDD) and acceptable intake (AI) for each nitrosamine formed by each drug
# [5] = Effect of active agent (sachet or film) on nitrite in GC vial headspace, cyclohexene derivative method; assay type: physicochemical; conditions: 50 mg active in sachet hanging in GC vial headspace over sulfuric acid + potassium nitrite; 24 hours at 60° C.
# Method: A 1 inch×0.5 inch tea bag sachet containing 50 mg±2 mg of a potential active agent, or a 1 cm^2 film was placed hanging in a GC vial headspace. […] 1 mL of 1M sulfuric acid solution and 1 mL of potassium nitrite solution (1 g/10 mL) was placed into the GC vial. The film or sachet was placed suspended inside the GC vial, and sealed, and aged for 24 hours at 60° C. GC-MS was conducted on the headspace using the derivative method. The methodology is based on a chemically derivative method that reacts all available NOx or nitrite directly into a measurable compound (cyclohexene) using acidified sodium cyclamate. The reaction is shown below:
# It will be understood that both the nitrite anion (NO2^−) and […] (HNO2), with the relative amounts being determined by solution pH, will be quantified by this method, and gaseous NOx can also be quantified, due to its equilibrium with aqueous phase species. For simplicity, results of this test may be described as measuring the amount of nitrite.
# [6] = NO2 adsorption by raw active and film, fixed bed reactor; assay type: physicochemical; conditions: raw active, 250 mg, 22° C.; for NO2 Adsorbed Amount: 505 ppm of NO2
# Method: (§1) NO and NO2 adsorption experiments were conducted within a fixed bed reactor at 22° C. In each experimental run, 250 mg of the sample was meticulously deposited onto a fused silica frit positioned within a vertical quartz reactor, which boasted an internal diameter of 6 mm. Prior to each experiment, the system underwent a thorough purge using nitrogen (N) to eliminate any residual gases and ensure a clean starting point. Following the purge, calibration procedures were meticulously carried out to guarantee the accuracy of the concentration measurements. This involved precisely calibrating the ROSEMOUNT NGA 2000 detector to establish a reliable baseline for the subsequent experiments. […] Throughout the experiments, the concentrations of outlet gases, namely NO and NO2, were continuously monitored. This real-time analysis was facilitated by the highly sensitive ROSEMOUNT NGA 2000 detector (St. Louis, MO, USA). To account for any background signals or potential interferences, a blank experiment was conducted using an empty reactor. The obtained results from this blank experiment were subtracted from the measurements of the sample, ensuring that the recorded concentrations accurately reflected the adsorption behavior of NO2 by the sample. This meticulous approach enhances the reliability and precision of the experimental findings.
# [7] = NO adsorption by raw active and film, fixed bed reactor; assay type: physicochemical; conditions: raw active, 250 mg, 22° C.
# Method: as §1
# [8] = Film and sachet comparison in monolayer bottles: nitrite; assay type: physicochemical; conditions: raw active in sachet in monolayer bottle; 60° C., 40% RH, 6 days
# Method: For raw active samples, the appropriate mass was weighed as shown in Table 20 and was placed in a sachet which was closed. Films were cut to 120 mm×65 mm. Film thickness was from about 0.3 mm to about 1.2 mm.
# A 20 mL scintillation vial was placed in each bottle. 3.5 mL of potassium nitrite and 3.5 mL of sulfuric acid were added to the scintillation vial. GC-MS was conducted on the headspace using the cyclohexene derivative method for nitrite. Samples were aged at 60° C. and 40% RH for 6 days.
# [9] = Effect of raw active on nitrite, headspace GC (modified FDA protocol); assay type: physicochemical; conditions: raw active 50 mg in GC vial with sulfuric acid + potassium nitrite, 24 hours at 60° C., estimated ppm of nitrous acid in headspace
# Method: The active sachet was placed inside the GC vial and sealed and aged for 24 hours at 60° C. Controls only contained the liquid. GC was conducted on the headspace using a modified version of the FDA protocol for GC-MS/MS to detect nitrite. […] Food & Drug Administration (FDA), Apr. 29, 2019, published online.
molecule,measurement,setting,value
"CCN(CC)N=O [NDEA, N-nitrosodiethylamine]",AI Limit,[1],26.5 ng/day
N[C@@H](CS)C(=O)O [L-cysteine],NPO (% Decrease),[2],2%
CN(CC(O)c1cccc(O)c1)N=O (stereo not drawn) [1-nitroso-phenylephrine],AI /day,[3],100 ng
same,AI (ppm),"[4]; Phenylephrine, MDD 60 mg",1.67 ppm
Nc1ccc(C(=O)O)cc1 [4-aminobenzonic acid],NPO (% Decrease),[2],7%
"OC[C@H]1O[C@@H]2O[C@H]3[C@H](O)[C@@H](O)[C@@H](O[C@H]4[C@H](O)[C@@H](O)[C@@H](O[C@H]5[C@H](O)[C@@H](O)[C@@H](O[C@H]6[C@H](O)[C@@H](O)[C@@H](O[C@H]7[C@H](O)[C@@H](O)[C@@H](O[C@H]8[C@H](O)[C@@H](O)[C@@H](O[C@H]1[C@H](O)[C@H]2O)O[C@@H]8CO)O[C@@H]7CO)O[C@@H]6CO)O[C@@H]5CO)O[C@@H]4CO)O[C@@H]3CO [Beta Cyclodextrin Powder, Beta Cyclodextrin]",Nitrite (% decrease),[5],25.6%
same,NO2 Adsorbed Amount,[6],2.96 mg/g
Cl [Hydrochloric Acid],Nitrite (% decrease),[5],14.4%
Vitamin A,Nitrite (% decrease),[5],11.3%
[Cl-].[Na+] [Sodium Chloride],Nitrite (% decrease),[5],86.8%
same,NO Adsorbed Amount,[7],0.34 mg/g
same,Nitrite (% decrease),[8],99.9%
same,NO2 Adsorbed Amount,[6],2.00 mg/g
O=C([O-])O.[Na+] [Sodium Bicarbonate],Nitrite (% decrease),[5],57.7%
same,NO Adsorbed Amount,[7],0.14 mg/g
same,Nitrite (% decrease),[8],72.8%
same,NO2 Adsorbed Amount,[6],2.24 mg/g
O=C([O-])[O-].[Mg+2] [Magnesium Carbonate],Nitrite (% decrease),[5],33.9%
same,NO2 Adsorbed Amount,[6],8.03 mg/g
CC1=C(/C=C/C(C)=C/C=C/C(C)=C/C=C/C=C(C)/C=C/C=C(C)/C=C/C2=C(C)C(=O)[C@@H](O)CC2(C)C)C(C)(C)C[C@H](O)C1=O [Astaxanthin],Nitrite (% decrease),[5],35.0%
CC1=C(/C=C/C(C)=C/C=C/C(C)=C/C=C/C=C(C)/C=C/C=C(C)/C=C/C2=C(C)C[C@@H](O)CC2(C)C)C(C)(C)C[C@H](O)C1 [Zeaxanthin],Nitrite (% decrease),[5],26.6%
[O]=[Fe][O][Fe]=[O] [Ferric Oxide],Nitrite (% decrease),[5],14.3%
"CN(C)N=O [NDMA, N-nitrosodimethylamine]",AI /day,[3],96 ng
same,AI (ppm),"[4]; Ranitidine, MDD 320 mg",0.3 ppm
same,AI Limit,[1],96 ng/day
COC1=C(OC)C(=O)C(C/C=C(\C)CC/C=C(\C)CC/C=C(\C)CC/C=C(\C)CC/C=C(\C)CC/C=C(\C)CC/C=C(\C)CC/C=C(\C)CC/C=C(\C)CCC=C(C)C)=C(C)C1=O [Coenzyme Q10],Nitrite (% decrease),[5],−7.8%
O=NN1CCC(c2ccccc2)CC1 [1-nitroso-4-phenylpiperdine],AI (ppm),"[4]; 4-Phenylpiperdine (CPCA Calculated), MDD (ketophrofen) 200 mg",2 ppm
same,AI (ppm),"[4]; 4-Phenylpiperdine (CPCA Calculated), MDD (meperide) 600 mg",0.67 ppm
same,AI (ppm),"[4]; 4-Phenylpiperdine (CPCA Calculated), MDD (pethidine) 400 mg",1 ppm
same,average AI,[4]; average of the three MDD-based values,1.2 ppm
O=C1O[C@H]([C@@H](O)CO)C([O-])=C1O.[Na+] [Sodium Ascorbate],NPO (% Decrease),[2],9%
Sodium Alginate,Nitrite (% decrease),[5],27.7%
CN(CCCC(=O)O)N=O [NMBA],AI Limit,[1],96 ng/day
"O=C1O[C@H]([C@@H](O)CO)C(O)=C1O [Ascorbic Acid, L-ascorbic acid]",Nitrite (% decrease),[5],23.7%
same,NPO (% Decrease),[2],9%
same,NO Adsorbed Amount,[7],0.14 mg/g
same,Nitrite (ppm),[9],0.08 ppm
same,Nitrite (ppm),[9]; listed as Ascorbic acid,most effective raw active at decreasing the level of nitrite
same,Nitrite (% decrease),[8],−111.1%
same,NO2 Adsorbed Amount,[6],2.50 mg/g
"CC(C)N(N=O)C(C)C [NDIPA, N-nitrosodi-2-propylamine]",AI Limit,[1],26.5 ng/day
O=S(=O)([O-])[O-].[Ca+2] [Calcium Sulfate],Nitrite (% decrease),[5],22.2%
O=C(O)/C=C/c1ccc(O)c(O)c1 [Caffeic Acid],Nitrite (% decrease),[5],31.6%
CC(C)=CCC/C(C)=C/C=C/C(C)=C/C=C/C(C)=C/C=C/C=C(C)/C=C/C=C(C)/C=C/C=C(\C)CCC=C(C)C [Lycopene],Nitrite (% decrease),[5],23.7%
COc1cc(/C=C/C(=O)O)ccc1O [Ferulic Acid],Nitrite (% decrease),[5],61.7%
same,NO2 Adsorbed Amount,[6],3.27 mg/g
Vitamin E,Nitrite (% decrease),[5],89.8%
same,NO Adsorbed Amount,[7],0.16 mg/g
same,Nitrite (% decrease),[8],31.6%
same,NO2 Adsorbed Amount,[6],4.95 mg/g
[Cl-].[Cl-].[Mg+2] [Magnesium Chloride],Nitrite (% decrease),[5],−15.7%
CCN(N=O)C(C)C [NIPEA],AI Limit,[1],26.5 ng/day
O=C([O-])[O-].[Ca+2] [Calcium Carbonate],Nitrite (% decrease),[5],46.9%
same,NO Adsorbed Amount,[7],0.15 mg/g
same,NO2 Adsorbed Amount,[6],7.75 mg/g
same,NO2 Adsorbed Amount (mg/g),"[6]; 505 ppm of NO2, listed as calcium carbonate",most effective NO2 adsorber from amongst the raw actives tested
CCCOC(=O)c1cc(O)c(O)c(O)c1 [Propyl Gallate],Nitrite (% decrease),[5],3.2%
